Experimental data published in patent US9409892B2, “4-hydroxy-isoquinoline compounds as HIF hydroxylase inhibitors” (FIBROGEN, INC., priority 2012, dated 2016).

How the values were obtained:
PHD2 (EGLN1) = PHD2 (EGLN1) (Homo sapiens (Human), UniProt Q9GZT9); test: HIF-PH assay (14CO2 capture), PHD2 enzyme inhibition; type: biochemical; conditions: Table 1; individual measurement; read-out: IC50 (μM) PHD2
PHD1 (EGLN2) = PHD1 (EGLN2) (Homo sapiens (Human), UniProt Q96KS0); test: HIF-PH assay (14CO2 capture), PHD1 enzyme inhibition; type: biochemical; conditions: Table 1; for IC50: individual measurement, read-out: IC50 (μM) PHD1; for PHD2/PHD1: ratio of the IC50 of the compound for each enzyme
PHD1 (EGLN2), sequence (Q96KS0 whole entry): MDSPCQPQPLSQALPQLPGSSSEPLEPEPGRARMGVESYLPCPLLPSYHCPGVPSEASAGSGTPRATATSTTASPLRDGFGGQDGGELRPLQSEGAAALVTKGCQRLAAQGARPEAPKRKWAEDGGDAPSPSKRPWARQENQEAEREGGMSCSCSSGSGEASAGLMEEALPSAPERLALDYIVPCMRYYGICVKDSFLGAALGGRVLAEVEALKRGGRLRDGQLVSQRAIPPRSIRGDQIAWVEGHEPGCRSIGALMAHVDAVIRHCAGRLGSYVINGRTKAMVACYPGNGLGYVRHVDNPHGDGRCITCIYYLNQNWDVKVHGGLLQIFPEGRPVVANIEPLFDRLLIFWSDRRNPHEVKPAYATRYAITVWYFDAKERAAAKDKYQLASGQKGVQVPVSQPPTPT

PHD2 (EGLN1), sequence (Q9GZT9 whole entry): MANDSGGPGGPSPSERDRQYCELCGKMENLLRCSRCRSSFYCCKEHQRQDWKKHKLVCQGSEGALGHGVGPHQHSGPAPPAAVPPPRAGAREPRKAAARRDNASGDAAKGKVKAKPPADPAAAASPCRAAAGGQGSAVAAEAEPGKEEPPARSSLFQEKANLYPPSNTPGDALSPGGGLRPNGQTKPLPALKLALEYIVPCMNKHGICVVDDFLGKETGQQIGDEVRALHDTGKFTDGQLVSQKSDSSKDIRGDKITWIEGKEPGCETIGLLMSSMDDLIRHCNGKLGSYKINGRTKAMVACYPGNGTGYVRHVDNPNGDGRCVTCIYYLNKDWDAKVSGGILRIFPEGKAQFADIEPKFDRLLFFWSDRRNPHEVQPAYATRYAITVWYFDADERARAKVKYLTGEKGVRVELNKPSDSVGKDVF

Compound	IC50 (PHD2 (EGLN1)) [µM]	IC50 (PHD1 (EGLN2)) [µM]	PHD2/PHD1 (PHD1 (EGLN2))
CC(CCC(=O)O)NC(=O)c1nc(C#N)c2cc(Oc3ccccc3)ccc2c1O (stereo not drawn) [Compound 184, 4-[(1-Cyano-4-hydroxy-7-phenoxy-isoquinoline-3-carbonyl)-amino]-pentanoic acid]	12.6	1.38	9
COc1ccc(CNc2ccc3c(O)c(C(=O)NCC(C)(C)C(=O)O)ncc3c2)cc1 [Compound 126, 3-{[4-Hydroxy-7-(4-methoxy-benzylamino)-isoquinoline-3-carbonyl]-amino}-2,2-dimethyl-propionic acid]	200	34	6
CC(C)(CNC(=O)c1nc(C#N)c2cc(Oc3cc(F)ccc3Cl)ccc2c1O)C(=O)O [Compound 31, 3-{[7-(2-Chloro-5-fluoro-phenoxy)-1-cyano-4-hydroxy-isoquinoline-3-carbonyl]-amino}-2,2-dimethyl-propionic acid]	4.2	0.53	8
N#Cc1nc(C(=O)N[C@H]2CC[C@H](C(=O)O)CC2)c(O)c2ccc(Oc3ccccc3)cc12 [Compound 88, trans-4-[(1-Cyano-4-hydroxy-7-phenoxy-isoquinoline-3-carbonyl)-amino]-cyclohexanecarboxylic acid]	93.3	14.1	7
O=C(O)CCCNC(=O)c1ncc2ccc(Oc3ccccc3)cc2c1O [Compound 113, 4-[(4-Hydroxy-6-phenoxy-isoquinoline-3-carbonyl)-amino]-butyric acid]	200	21.2	9

Continued by falling IC50 (PHD2 (EGLN1)), values first:

IC50 (PHD2 (EGLN1)) [µM]	IC50 (PHD1 (EGLN2)) [µM]	PHD2/PHD1 (PHD1 (EGLN2))	Compound
100	9.57	10	O=C(NCC(C(=O)O)C1CC1)c1ncc2cc(Oc3ccccc3)ccc2c1O (stereo not drawn) [Compound 167, 2-Cyclopropyl-3-[(4-hydroxy-7-phenoxy-isoquinoline-3-carbonyl)-amino]-propionic acid]
87	18.5	5	O=C(O)CCCCNC(=O)c1ncc2cc(-c3ccc(F)cc3)ccc2c1O [Compound 149, 5-{[7-(4-Fluoro-phenyl)-4-hydroxy-isoquinoline-3-carbonyl]-amino}-pentanoic acid]
65.2	8.99	7	N#Cc1nc(C(=O)NCCCCC(=O)O)c(O)c2cc(Oc3ccccc3)ccc12 [Compound 128, 5-[(1-Cyano-4-hydroxy-6-phenoxy-isoquinoline-3-carbonyl)-amino]-pentanoic acid]
56.3	7.32	8	N#Cc1nc(C(=O)NC2(CC(=O)O)CCCCC2)c(O)c2ccc(Oc3ccccc3)cc12 [Compound 90, {1-[(1-Cyano-4-hydroxy-7-phenoxy-isoquinoline-3-carbonyl)-amino]-cyclohexyl}-acetic acid]
18.9	1.17	16	N#Cc1nc(C(=O)N[C@H](Cc2ccccc2)[C@@H](O)C(=O)O)c(O)c2ccc(Oc3ccccc3)cc12 [Compound 75, (2R,3R)-3-(1-Cyano-4-hydroxy-7-phenoxyisoquinoline-3-carboxamido)-2-hydroxy-4-phenylbutanoic acid]
12.3	1.1	11	CCC(C)(CNC(=O)c1nc(C#N)c2cc(Oc3ccccc3)ccc2c1O)C(=O)O (stereo not drawn) [Compound 58, 2-{[(1-Cyano-4-hydroxy-7-phenoxy-isoquinoline-3-carbonyl)-amino]-methyl}-2-methyl-butyric acid]
1.4	0.24	5.8	COC(=O)N[C@H](CCNC(=O)c1nc(C#N)c2cc(Oc3ccccc3)ccc2c1O)C(=O)O [Compound 53, (R)-4-(1-Cyano-4-hydroxy-7-phenoxyisoquinoline-3-carboxamido)-2-(methoxycarbonylamino)butanoic acid]
